Patent publication US20230146923A1, “COMPOSITIONS AND METHODS FOR INHIBITION AND TARGETING OF P97” (California Institute of Technology, priority 2021, published 2023)
Where a SMILES comes first, the peptide text is derived from it. The star is where a group is joined. Cbz = O=C(OCc1ccccc1)*

What was measured:
Assay type in all cases: cell-based
[1] = test system: HCT116 cells; assay: Cell cycle analysis (DNA content); conditions: HCT116, 24 h; 1 μM MG132, 2 μM CB-5083
Experimental: FIG. 7A depicts cell cycle analysis of HCT116 cells after 24 h of treatments with DMSO, 1 μM of MG132 (MG) or 2 μM of CB-5083. […] Data were from TMT labeling proteomics. M, C and N indicates MG132, CB-5083 and NMS-873 treatment, respectively. […] HCT116 cells were treated for 24 h with DMSO, 1 μM of MG132 (MG), 2 μM of CB-5083 (CB) or 4 μM of NMS-873 (NMS), n=3.

[2] = test system: cyclin D1; assay: Cyclin D1 level and degradation (co-treatment, CHX chase)
Experimental: FIGS. 12A-12C depicts Western blots detecting the effects of p97 inhibitors and MG132 on cell cycle proteins in HT29 and HCT116 cells. […] Then, 50 μM of CHX was added and cells were collected at 0 h, 0.5 h, and 1 h. FIG. 12C depicts half-life of cyclin D1 in HCT116 cells. HCT116 cells were pre-treated with 5 μM of CB-5083 or DMSO for 30 minutes before adding 50 μM of CHX, and cells were collected at 0, 10, 20, 30 min (n=3), * indicates p<0.05 according to unpaired t-test.
(§1) The concentration of MG132, CB-5083 and Baf A1 was 1 μM, 2 μM and 10 μM, respectively. […] FIGS. 13D-13E depict the half-life of Securin in HCT116 cells. HCT116 cells were treated with 1 μM of MG132, 2 μM of CB-5083, 1 μM of MG132 plus 2 μM of CB-5083 or DMSO. […] Cells were pretreated with […] for 1 h. […] For FIGS. 13B-13G, D, B, M, C and N represents DMSO, Baf A1, MG132, CB-5083 and NMS-873, respectively. Data are shown as mean±SD. Statistical analysis was performed using one-way ANOVA.
Cells were co-treated with CB-5083 and either the proteasome inhibitor MG132 or the autophagy inhibitor Bafilomycin A1 (Baf A1).

[3] = test system: Securin; assay: Securin degradation (CHX chase) in HCT116 cells; conditions: HCT116, 1 μM MG132, 50 μM CHX
Experimental: as §1

CC(C)C[C@@H](C=O)NC(=O)[C@H](CC(C)C)NC(=O)[C@H](CC(C)C)NC(=O)OCc1ccccc1 [MG132] (Cbz-Leu-Leu-Leu-aldehyde)
Distribution of cells in the G0/G1 phase [1]: reduced distribution in the G0/G1 phase
Cyclin D1 turnover in cytosol and nucleus ([2]; HCT116, 50 μM CHX): blocked
Effect on CB-5083 mediated cyclin D1 downregulation (co-treatment) ([2]; HCT116, 6 hours, MG132 1 μM, CB-5083 2 μM, Baf A1 10 μM): rescued CB-5083 mediated cyclin D1 downregulation at the protein level but not at the mRNA level
Securin protein degradation from the cytosol and nucleus [3]: blocked
